Results as given in patent US11441162B2, “Human gut microbiome-derived biosynthetic enzymes for production of fatty acid amides” (Massachusetts Institute of Technology, priority 2019, dated 2022).
Like-named read-outs stand apart in the source and are kept apart here. Values belong to the compound of their own block, whether it stands above or below them.

How the values were obtained:
GPR132 [1] = target: T1, GPR132 (Homo sapiens, UniProt Q9UNW8); settings: previously reported human microbiome-derived FAA GPCR modulator; read-out: GPR132 agonist at (previously reported); cited from earlier work
T1 sequence (Q9UNW8 1-380): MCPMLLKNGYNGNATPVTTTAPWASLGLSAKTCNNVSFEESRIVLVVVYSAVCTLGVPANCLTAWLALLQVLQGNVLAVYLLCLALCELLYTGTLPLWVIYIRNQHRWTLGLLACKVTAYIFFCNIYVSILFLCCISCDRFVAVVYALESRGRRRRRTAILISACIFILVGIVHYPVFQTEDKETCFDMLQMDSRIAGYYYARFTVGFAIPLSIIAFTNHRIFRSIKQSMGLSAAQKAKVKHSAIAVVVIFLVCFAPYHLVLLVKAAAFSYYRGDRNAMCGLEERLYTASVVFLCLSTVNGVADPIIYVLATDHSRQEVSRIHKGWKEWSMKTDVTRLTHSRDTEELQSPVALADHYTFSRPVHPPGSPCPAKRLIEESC

[2] = tested on: C protein of the L. clostridioforme, B. producta, C. celatum, C. sp pathways; assay: Substrate panel assay, condensation activity on amine panel; assay type: biochemical, Clostridia; settings: highest amine substrate of the panel for these four pathways; α-linolenic acid as fatty acid
Experimental: The human gut lumen consists of various fatty acid and amine substrates from different sources that the pathway can incorporate for FAA production. To characterize the preferred product, an in vitro substrate panel assay was set up to investigate substrate selectivity of the biosynthetic enzymes for each of the eight identified HMP-derived pathways (FIG. 2A). A and C enzyme activity was measured for defined fatty acid and amines, respectively, to determine the substrates that each pathway prefers to incorporate for FAA production (FIG. 2B-2C). A panel of 25 fatty acids and 53 biogenic amines derived from Clostridia, human cells, and human diet that are known to be abundant in the human gut was selected (FIG. 2D).^43,44,45,46,47 For consistency, FAA product level, instead of PPi level, was used as the metric of A activity for the panel assay by adding tryptamine for all query fatty acid substrates to measure the level of C-independent FAA formation based on the UV absorbance of the indole chromophore (FIG. 2B). […]
For adenylation activity, adenylation and thiolation proteins (no condensation) were added with the query fatty acid substrate(s) and tryptamine as a UV-active chromophore. […] The reaction was mixed with equal volume of methanol, spun down at 21,000 g for 1 min, and analyzed with the same analytical LCMS run as described previously. […]

EBI2/GPR183 = EBI2/GPR183 (Homo sapiens, UniProt P32249); assay: Cell-based β-arrestin reporter assay (DiscoverX), EBI2 antagonist mode: panel at 10 uM and concentration-response; settings: for inhibition on EBI2 (concentration-response, in words): antagonist mode against 7α,25-diHC; for IC50: in the presence of native agonist 7α,25-dihydroxycholesterol at 0.232 uM (EC80), ten concentrations 100 to 0.0051 uM, read-out: IC50, inhibitory activity on EBI2
Experimental: FIGS. 31A-31H show GPCR activity assay of lauroyl tryptamine. a, Cell-based β-arrestin reporter assay (DiscoveRx) with a panel of 168 GPCRs with known ligands in agonist mode and antagonist mode, and also 73 orphan GPCRs in agonist mode at 10 uM. Agonist mode measures % activity of target GPCR by the compound, relative to the baseline value (0% activity) and maximum value with a known ligand, or twofold increase over baseline for orphan GPCR (100% activation). Antagonist mode measures % inhibition of target GPCR by the compound in the presence of a known ligand, relative to the value at the EC80 (0% inhibition) and basal value (100% inhibition). […] EBI2 antagonist activity (δ1%) is marked with an asterisk (*). b, Concentration-dose response curves of the inhibitory activity of lauroyl tryptamine, tryptamine, and lauric acid on EBI2 in the presence of the native agonist 7α,25-dihydroxycholesterol (7a,25-diHC) at 0.232 uM (EC80). […] IC50>100 uM for all three compounds. d, Concentration-dose response curves of the stimulatory activity of lauroyl tryptamine, tryptamine, and lauric acid on GPR132. […] For b, c, d, the curves span ten concentration points in duplicates from 100 to 0.0051 uM, with the error bar being the s.d. from duplicates. e, MS chromatogram (EIC ESI+[M+H]^+ m/z of lauroyl tryptamine, theoretical=343.2744, experimental=[…]) of the in vivo extract of E. rectale in RCM media (with no fed substrates). The samples are injected alongside a chemically synthesized and structurally verified standard. The * denotes lauroyl tryptamine. The production titer was determined to be 0.04 mg/L. f, Product titer of fatty acyl tryptamine from the in vivo extract of E. rectale in RCM, when fed with exogenous fatty acid (lauric acid, linoleic acid, oleic acid, docosahexaenoic acid, or α-linolenic acid). g, Mapping of human gut metatranscriptomic reads from subject subX316701492 (accession: SRX247340) onto a 80 kb region of the E. rectale genome centered on the FAA pathway (darker arrows, labeled “FAA”). The mean coverage of the 80 kb segment was 0.8 (SD=3.3), while the mean coverage of the FAA pathway by itself was 1.5 (SD=1.1). Housekeeping genes within this segment include tRNA synthetase (tR), carbohydrate metabolism (CM), and sugar transporter (ST) genes. h, Immunological and development role of the EBI2-oxysterol axis and its suppression by E. rectale-derived lauroyl tryptamine to possibly protect against IBD.
FAAs are known to modulate diverse biological functions by interacting with human GPCRs. The products of the FAA screen are either known GPCR ligands or appear to structurally mimic these molecules (FIG. 30). The FAAs were analyzed for activity against a panel of known and orphan human GPCRs using the DiscoverX platform. […]

P2RY4 = P2RY4 (Homo sapiens, UniProt P51582); assay: Cell-based β-arrestin reporter assay (DiscoverX), P2RY4 antagonist mode: panel at 10 uM and concentration-response; settings: in the presence of native agonist UTP at 2.79 uM (EC80); ten concentrations 100 to 0.0051 uM; read-out: IC50, inhibitory activity on P2RY4
Experimental: FIGS. 31A-31H show GPCR activity assay of lauroyl tryptamine. a, Cell-based β-arrestin reporter assay (DiscoveRx) with a panel of 168 GPCRs with known ligands in agonist mode and antagonist mode, and also 73 orphan GPCRs in agonist mode at 10 uM. Agonist mode measures % activity of target GPCR by the compound, relative to the baseline value (0% activity) and maximum value with a known ligand, or twofold increase over baseline for orphan GPCR (100% activation). Antagonist mode measures % inhibition of target GPCR by the compound in the presence of a known ligand, relative to the value at the EC80 (0% inhibition) and basal value (100% inhibition). […] The production titer was determined to be 0.04 mg/L. f, Product titer of fatty acyl tryptamine from the in vivo extract of E. rectale in RCM, when fed with exogenous fatty acid (lauric acid, linoleic acid, oleic acid, docosahexaenoic acid, or α-linolenic acid). g, Mapping of human gut metatranscriptomic reads from subject subX316701492 (accession: SRX247340) onto a 80 kb region of the E. rectale genome centered on the FAA pathway (darker arrows, labeled “FAA”). […]
(§1) FAAs are known to modulate diverse biological functions by interacting with human GPCRs. […] The FAAs were analyzed for activity against a panel of known and orphan human GPCRs using the DiscoverX platform. […]

GPR132 [3] = target: T1, GPR132; assay: Cell-based β-arrestin reporter assay (DiscoverX), GPR132 agonist mode: orphan panel at 10 uM and concentration-response
Experimental: FIGS. 31A-31H show GPCR activity assay of lauroyl tryptamine. a, Cell-based β-arrestin reporter assay (DiscoveRx) with a panel of 168 GPCRs with known ligands in agonist mode and antagonist mode, and also 73 orphan GPCRs in agonist mode at 10 uM. Agonist mode measures % activity of target GPCR by the compound, relative to the baseline value (0% activity) and maximum value with a known ligand, or twofold increase over baseline for orphan GPCR (100% activation). Antagonist mode measures % inhibition of target GPCR by the compound in the presence of a known ligand, relative to the value at the EC80 (0% inhibition) and basal value (100% inhibition). […] EBI2 antagonist activity (δ1%) is marked with an asterisk (*). b, Concentration-dose response curves of the inhibitory activity of lauroyl tryptamine, tryptamine, and lauric acid on EBI2 in the presence of the native agonist 7α,25-dihydroxycholesterol (7a,25-diHC) at 0.232 uM (EC80). […] IC50>100 uM for all three compounds. d, Concentration-dose response curves of the stimulatory activity of lauroyl tryptamine, tryptamine, and lauric acid on GPR132. […] For b, c, d, the curves span ten concentration points in duplicates from 100 to 0.0051 uM, with the error bar being the s.d. from duplicates. e, MS chromatogram (EIC ESI+[M+H]^+ m/z of lauroyl tryptamine, theoretical=343.2744, experimental=[…]) of the in vivo extract of E. rectale in RCM media (with no fed substrates). […] The production titer was determined to be 0.04 mg/L. f, Product titer of fatty acyl tryptamine from the in vivo extract of E. rectale in RCM, when fed with exogenous fatty acid (lauric acid, linoleic acid, oleic acid, docosahexaenoic acid, or α-linolenic acid). g, Mapping of human gut metatranscriptomic reads from subject subX316701492 (accession: SRX247340) onto a 80 kb region of the E. rectale genome centered on the FAA pathway (darker arrows, labeled “FAA”). […]
as §1

NPSR1b = target: T2, NPSR1b (Homo sapiens, UniProt Q6W5P4); assay: Cell-based β-arrestin reporter GPCR panel (DiscoverX) at 10 uM, NPSR1b; settings: compound at 10 uM
T2 sequence (Q6W5P4 1-377 isoform Q6W5P4-4): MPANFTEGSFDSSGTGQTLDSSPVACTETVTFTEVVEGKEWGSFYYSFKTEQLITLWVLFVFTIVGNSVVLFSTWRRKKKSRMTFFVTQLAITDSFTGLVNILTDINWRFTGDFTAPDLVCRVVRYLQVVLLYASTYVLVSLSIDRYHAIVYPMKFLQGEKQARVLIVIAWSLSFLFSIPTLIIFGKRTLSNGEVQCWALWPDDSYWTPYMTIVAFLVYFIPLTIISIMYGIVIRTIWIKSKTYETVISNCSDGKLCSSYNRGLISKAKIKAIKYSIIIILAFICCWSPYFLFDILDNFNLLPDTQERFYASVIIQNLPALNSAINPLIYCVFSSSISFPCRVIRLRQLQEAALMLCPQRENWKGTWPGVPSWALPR
Experimental: (§2) Cell-based β-arrestin reporter assay (DiscoveRx) with a panel of 168 GPCRs with known ligands in agonist mode and antagonist mode, and also 73 orphan GPCRs in agonist mode at 10 uM. Agonist mode measures % activity of target GPCR by the compound, relative to the baseline value (0% activity) and maximum value with a known ligand, or twofold increase over baseline for orphan GPCR (100% activation). Antagonist mode measures % inhibition of target GPCR by the compound in the presence of a known ligand, relative to the value at the EC80 (0% inhibition) and basal value (100% inhibition).
(§3) FAAs are known to modulate diverse biological functions by interacting with human GPCRs. The products of the FAA screen are either known GPCR ligands or appear to structurally mimic these molecules (FIG. 30). The FAAs were analyzed for activity against a panel of known and orphan human GPCRs using the DiscoverX platform. The major compound from the four human gut metagenome-derived pathways (oleoyl dopamine, oleoyl tyramine, oleoyl aminovaleric acid, and lauroyl tryptamine) were chemically synthesized and screened at 10 uM on a panel of 168 known GPCRs covering 60 distinct receptors in both agonist and antagonist mode and 73 orphan GPCRs in agonist mode. […]

PRLHR = target: T3, PRLHR (Homo sapiens, UniProt P49683); assay: Cell-based β-arrestin reporter GPCR panel (DiscoverX) at 10 uM, PRLHR; settings: compound at 10 uM
T3 sequence (P49683 1-370): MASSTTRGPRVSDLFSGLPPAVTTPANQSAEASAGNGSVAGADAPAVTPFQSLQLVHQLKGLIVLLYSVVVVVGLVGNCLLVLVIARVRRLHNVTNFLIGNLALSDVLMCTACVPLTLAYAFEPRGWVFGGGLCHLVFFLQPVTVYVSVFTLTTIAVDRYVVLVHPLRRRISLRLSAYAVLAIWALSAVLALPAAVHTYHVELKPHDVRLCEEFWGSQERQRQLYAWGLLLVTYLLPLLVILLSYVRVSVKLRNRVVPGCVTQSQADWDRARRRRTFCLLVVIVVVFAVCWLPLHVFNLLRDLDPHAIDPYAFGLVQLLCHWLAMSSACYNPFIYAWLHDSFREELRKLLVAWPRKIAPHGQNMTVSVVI
Experimental: as §2, §3

PTGER4 = PTGER4 (Homo sapiens, UniProt P35408); assay: Cell-based β-arrestin reporter GPCR panel (DiscoverX) at 10 uM, PTGER4; settings: antagonist mode, compound at 10 uM
Experimental: as §2, §3

[4] = agonist mode, ten concentrations 100 to 0.0051 uM, read-out: EC50, stimulatory activity on GPR132

Chain of EBI2/GPR183 (P32249 whole entry): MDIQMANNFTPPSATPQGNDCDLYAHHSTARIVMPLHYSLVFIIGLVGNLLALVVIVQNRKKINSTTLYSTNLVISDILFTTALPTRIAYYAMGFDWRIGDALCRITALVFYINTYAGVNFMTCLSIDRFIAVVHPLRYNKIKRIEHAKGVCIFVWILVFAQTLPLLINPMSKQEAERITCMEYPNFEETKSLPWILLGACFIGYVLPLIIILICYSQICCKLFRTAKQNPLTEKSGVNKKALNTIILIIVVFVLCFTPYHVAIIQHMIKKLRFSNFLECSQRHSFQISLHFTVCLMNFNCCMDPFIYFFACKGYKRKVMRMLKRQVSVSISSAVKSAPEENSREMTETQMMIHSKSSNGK
Chain of P2RY4 (P51582 whole entry): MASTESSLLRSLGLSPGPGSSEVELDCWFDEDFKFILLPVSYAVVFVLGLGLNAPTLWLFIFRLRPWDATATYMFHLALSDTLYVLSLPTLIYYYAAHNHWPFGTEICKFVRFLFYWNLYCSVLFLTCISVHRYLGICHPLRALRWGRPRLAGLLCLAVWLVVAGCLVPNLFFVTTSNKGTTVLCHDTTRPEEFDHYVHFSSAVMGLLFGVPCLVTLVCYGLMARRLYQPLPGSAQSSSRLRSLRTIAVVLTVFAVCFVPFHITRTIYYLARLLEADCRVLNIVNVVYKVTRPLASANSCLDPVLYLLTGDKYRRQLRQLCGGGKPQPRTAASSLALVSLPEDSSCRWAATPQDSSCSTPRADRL
Chain of PTGER4 (P35408 whole entry): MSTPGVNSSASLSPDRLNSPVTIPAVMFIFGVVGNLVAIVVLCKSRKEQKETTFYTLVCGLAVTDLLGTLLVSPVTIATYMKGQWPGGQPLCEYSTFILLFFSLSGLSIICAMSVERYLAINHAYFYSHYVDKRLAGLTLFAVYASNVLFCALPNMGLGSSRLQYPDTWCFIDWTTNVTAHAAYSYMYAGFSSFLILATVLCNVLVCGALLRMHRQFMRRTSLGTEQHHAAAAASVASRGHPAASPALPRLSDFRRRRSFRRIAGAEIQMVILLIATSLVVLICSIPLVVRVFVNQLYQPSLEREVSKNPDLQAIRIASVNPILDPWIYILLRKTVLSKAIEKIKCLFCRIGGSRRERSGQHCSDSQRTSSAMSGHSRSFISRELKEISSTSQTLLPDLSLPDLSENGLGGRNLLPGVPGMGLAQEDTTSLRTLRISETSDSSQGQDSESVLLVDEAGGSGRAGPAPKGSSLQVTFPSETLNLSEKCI

Compound: CCCCCCCCCCCCCC(O)CC(=O)NCC(=O)O (centres unmarked) [commendamine]
EC50 (GPR132 [1]): 11.8 µM

Compound: CCCCCCCCCCCC(=O)O [lauric acid]
inhibition on EBI2 (concentration-response, in words) (EBI2/GPR183): Neither lauric acid nor tryptamine showed inhibition
IC50 (EBI2/GPR183): > 100 µM
IC50 (P2RY4): > 100 µM
EC50 (GPR132 [3]; [4]): 25.2 µM

Compound: NCCc1c[nH]c2ccccc12 [tryptamine]
inhibition on EBI2 (concentration-response, in words) (EBI2/GPR183): Neither lauric acid nor tryptamine showed inhibition
EC50 (GPR132 [3]): > 100 µM

Further lines, results first:

C protein enzymatic activity, fold difference with vs without condensation enzyme [2]: 2 fold
Compound: N[C@@H](CCS)C(=O)O [homocysteine]

IC50 (EBI2/GPR183): 0.98 µM
IC50 (P2RY4): > 100 µM
EC50 (GPR132 [3]; [4]): 1.45 µM
Compound: CCCCCCCCCCCC(=O)NCCc1c[nH]c2ccccc12 [lauroyl tryptamine]

activity on NPSR1b in GPCR panel (NPSR1b): shares activity
activity on PRLHR in GPCR panel (PRLHR): shares activity
Compound: CCCCCCCC/C=C\CCCCCCCC(=O)NCCc1ccc(O)cc1 [oleoyl tyramine]

inhibition of PTGER4 in GPCR panel (PTGER4): Inhibition was observed
Compound: oleoyl aminovaleric acid
